The source of these data is patent US5300527A, “Alkylamino-and alkylamino alkyl diarylketones” (Hoechst-Roussel Pharmaceuticals Incorporated, priority 1992, dated 1994).

Molecules are shown by their SMILES. Structures can show the parent of a compound that is named as a salt. Where two headings read alike, the source gives them in different places.

Assay [1] concerns 2-phenyl-1,4-benzoquinone-induced writhing. Put plainly: 2-phenyl-1,4-benzoquinone-induced writhing test in mice (analgesic activity). The class given is in vivo. The following applies: Mus musculus, sc, read-out: Inhibition in Writhing (%). An excerpt: Compounds of the present invention are useful as analgesic agents due to their ability to alleviate pain in mammals. […] Exptl. Biol. Med. 95, 729 (1957)].
On the technique in general: Writhing tests count abdominal constrictions after an irritant is injected.

Assay [2] relates to scopolamine induced memory deficit. Put plainly: Dark Avoidance Assay (reversal of scopolamine induced memory deficit). Type of assay: in vivo. The following applies: mice. As to the method: This utility can also be ascertained by determining the ability of these compounds to restore cholinergically deficient memory in the Dark Avoidance Assay. In this assay mice are tested for their ability to remember an unpleasant stimulus for a period of 24 hours. A mouse is placed in a chamber that contains a dark compartment; a strong incandescent light drives it to the dark compartment, where an electric shock is administered through metal plates on the floor. The animal is removed from the testing apparatus and tested again, 24 hours later, for the ability to remember the electric shock.
If scopolamine, an anticholinergic that is known to cause memory impairment, is administered before an animal's initial exposure to the test chamber, the animal re-enters the dark compartment shortly after being placed in the test chamber 24 hours later. This effect of scopolamine is blocked by an active test compound, resulting in a greater interval before re-entry into the dark compartment.
The results for an active compound are expressed as the percent of a group of animals in which the effect of scopolamine is blocked, as manifested by an increased interval between being placed in the test chamber and re-entering the dark compartment.

Setting [3] is: mice, dose 20 mg/kg of body wt., subcutaneous.

In the case of `CN(C)c1cccc(CC(=O)C(F)(F)c2ccccc2)c1` [1,1-Difluoro-3-[3-(dimethylamino)phenyl-1-phenyl-2-propanone], the inhibition in vivo at 20 mg/kg in assay [1] (setting [3]) was determined as 58%.

Regarding `CN(C)c1cccc(OCC(=O)Cc2cccc(Cl)c2)c1` [1-(3-Chlorophenyl)-3-[3-(dimethylamino)phenoxy]-2-propanone], in assay [1] (setting [3]), the inhibition in vivo at 20 mg/kg came out at 41%.

As to `CN(C)c1cccc(CC(=O)Cc2cccc(Cl)c2)c1` [1-(3-Chlorophenyl)-3-[3-(dimethylamino)phenyl]-2-propanone], the inhibition in vivo at 20 mg/kg in assay [1] (setting [3]) came out at 51%.

On to `CN(C)c1ccc(C(=O)C(F)(F)c2ccccc2)cc1` [2,2-Difluoro-1-[4-(dimethylamino)phenyl]-2-phenylethanone], for which, in assay [1] (setting [3]), the inhibition in vivo at 20 mg/kg is 67%.

Take `CN(C)c1cccc(C(=O)COc2cccc(Cl)c2)c1` [2-(3-Chlorophenoxy)-1-[3-(dimethylamino)phenyl]ethanone]: the inhibition in vivo at 20 mg/kg in assay [1] (setting [3]) turned out to be 69%.

Consider `CN(C)c1cccc(C(=O)Cc2cccc(Cl)c2)c1.Cl` [2-(3-Chlorophenyl)-1-[3-(dimethylamino)phenyl]ethanone hydrochloride], for which the “% of animals with scopolamine induced memory deficit reversal” value in assay [2] (dose 0.16 mg/kg, s.c.) is reported as 40%.

For the compound `CN(C)c1cccc(C(=O)C(F)(F)c2cccc(Cl)c2)c1` [2-(3-Chlorophenyl)-2,2-difluoro-1-[3-(dimethylamino)phenyl]ethanone hydrochloride], the inhibition in vivo at 20 mg/kg in assay [1] was 50%.

For `CN(C)c1ccc(C(=O)C(F)c2cccc(Cl)c2)cc1` (centres unmarked) [2-(3-Chlorophenyl)-2-fluoro-1-[4-(dimethylamino)phenyl]ethanone], the inhibition in vivo at 20 mg/kg in assay [1] (setting [3]) stood at 44%.

Regarding `CN(C)c1cccc(C(=O)C(F)(F)C(O)c2cccc(Cl)c2)c1` (centres unmarked) [3-(3-Chlorophenyl)-2,2-difluoro-3-hydroxy-1-[3-(dimethylamino)phenyl]propanone hydrochloride], the inhibition in vivo at 20 mg/kg in assay [1] (setting [3]) was determined as 63%.

On to `CNC(=O)Oc1ccc2c(c1)[C@]1(C)CCN(C)[C@@H]1N2C` [physostigmine, reference compound], for which the “% of animals with scopolamine induced memory deficit reversal” value in assay [2] (dose 0.31 mg/kg, s.c. (reference)) is reported as 20%.

For `CCC(=O)O[C@](Cc1ccccc1)(c1ccccc1)[C@H](C)CN(C)C` [propoxyphene, reference compound], the inhibition in vivo at 3.9 mg/kg in assay [1] is 50%.
